Experimental data as given in US20230114728A1 (Venatorx Pharmaceuticals, Inc., priority 2019, published 2023).

Target: T1, E. coli K12 PBP3 (Escherichia coli, UniProt P0AD68)
T1 construct: made in house
Assay: biochemical
Assay type: binding
Outline: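 A. baumannii PBP2 (2.5 μM) and PBP3 (0.2 μM) were run in 25 mM Tris pH 8.0 buffer with Tween 20; E. coli PBP3 (1.5 μM) and N. gonorrhoeae PBP2 ([…]) in 50 mM Hepes pH 8.0 buffer.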

T1 sequence (P0AD68 1-577): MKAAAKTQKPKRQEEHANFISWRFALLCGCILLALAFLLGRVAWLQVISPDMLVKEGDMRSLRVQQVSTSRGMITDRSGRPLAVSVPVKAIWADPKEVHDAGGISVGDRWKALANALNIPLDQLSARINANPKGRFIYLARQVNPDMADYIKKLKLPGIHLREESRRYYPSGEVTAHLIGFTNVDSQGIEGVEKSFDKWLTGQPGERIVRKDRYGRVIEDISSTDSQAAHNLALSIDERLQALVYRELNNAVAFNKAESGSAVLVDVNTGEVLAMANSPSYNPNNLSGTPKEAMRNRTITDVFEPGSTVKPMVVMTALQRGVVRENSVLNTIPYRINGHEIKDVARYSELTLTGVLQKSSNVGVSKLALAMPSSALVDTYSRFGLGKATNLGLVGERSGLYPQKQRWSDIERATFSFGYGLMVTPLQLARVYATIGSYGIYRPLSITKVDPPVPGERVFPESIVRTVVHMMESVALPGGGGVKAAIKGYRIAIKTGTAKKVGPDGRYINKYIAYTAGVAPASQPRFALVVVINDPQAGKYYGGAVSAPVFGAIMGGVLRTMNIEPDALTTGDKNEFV

SMILES | EC50
O=C(O)c1cccc2c1OB(O)[C@@H](NC(=O)C(NC(=O)N1CCN(CCF)C(=O)C1=O)c1c(F)cc(O)cc1F)C2 (mixture of isomers) [Example 119, (3R)-3-(2-(2,6-difluoro-4-hydroxyphenyl)-2-(4-(2-fluoroethyl)-2,3-dioxopiperazine-1-carboxamido)acetamido)-2-hydroxy-3,4-dihydro-2H-benzo[e][1,2]oxaborinine-8-carboxylic acid] | < 30 µM
NCCN1CCN(C(=O)N[C@H](C(=O)N[C@H]2Cc3cccc(C(=O)O)c3OB2O)c2c(F)cc(O)cc2F)C(=O)C1=O (single isomer, unassigned) [Example 110] | 30 to 500 µM
NCCN1CCN(C(=O)N[C@@H](C(=O)N[C@H]2Cc3cccc(C(=O)O)c3OB2O)c2c(F)cc(O)cc2F)C(=O)C1=O (single isomer, unassigned) [Example 111] | < 30 µM
NCCN1CCN(C(=O)N[C@@H](C(=O)N[C@H]2Cc3cccc(C(=O)O)c3OB2O)c2cccc(NS(N)(=O)=O)c2)C(=O)C1=O (single isomer, unassigned) [Example 114] | 30 to 500 µM
NCCN1CCN(C(=O)N[C@H](C(=O)N[C@H]2Cc3cccc(C(=O)O)c3OB2O)c2cccc(NS(N)(=O)=O)c2)C(=O)C1=O (single isomer, unassigned) [Example 115] | 30 to 500 µM
NC1(CN2CCN(C(=O)N[C@@H](C(=O)N[C@H]3Cc4cccc(C(=O)O)c4OB3O)c3c(F)cc(O)cc3F)C(=O)C2=O)CC1 (single isomer, unassigned) [Example 121] | < 30 µM
NC1(CN2CCN(C(=O)N[C@H](C(=O)N[C@H]3Cc4cccc(C(=O)O)c4OB3O)c3c(F)cc(O)cc3F)C(=O)C2=O)CC1 (single isomer, unassigned) [Example 122] | < 30 µM
O=C(O)c1cccc2c1OB(O)[C@@H](NC(=O)[C@H](NC(=O)N1CCN(CCF)C(=O)C1=O)c1c(F)cc(O)cc1F)C2 (single isomer, unassigned) [Example 126] | < 30 µM
NCCN1CCN(C(=O)N[C@@H](C(=O)N[C@H]2Cc3ccc(F)c(C(=O)O)c3OB2O)c2c(F)cc(O)cc2F)C(=O)C1=O (single isomer, unassigned) [Example 127] | < 30 µM
NCCN1CCN(C(=O)N[C@H](C(=O)N[C@H]2Cc3ccc(F)c(C(=O)O)c3OB2O)c2c(F)cc(O)cc2F)C(=O)C1=O (single isomer, unassigned) [Example 128] | 30 to 500 µM
CS(=O)(=O)N1CCN(C(=O)N[C@@H](C(=O)N[C@H]2Cc3cccc(C(=O)O)c3OB2O)c2c(F)cc(O)cc2F)C1=O (single isomer, unassigned) [Example 135] | < 30 µM
CS(=O)(=O)N1CCN(C(=O)N[C@H](C(=O)N[C@H]2Cc3cccc(C(=O)O)c3OB2O)c2c(F)cc(O)cc2F)C1=O (single isomer, unassigned) [Example 136] | 30 to 500 µM
CCN1CCN(C(=O)N[C@H](C(=O)N[C@H]2Cc3cccc(C(=O)O)c3OB2O)c2ccc(C(=O)O)cc2O)C(=O)C1=O (single isomer, unassigned) [Example 143] | < 30 µM
CCN1CCN(C(=O)N[C@@H](C(=O)N[C@H]2Cc3cccc(C(=O)O)c3OB2O)c2ccc(C(=O)O)cc2O)C(=O)C1=O (single isomer, unassigned) [Example 144] | < 30 µM
NCCN1CCN(C(=O)N[C@H](C(=O)N[C@H]2Cc3cccc(C(=O)O)c3OB2O)c2cc(F)c(O)c(F)c2)C(=O)C1=O (single isomer, unassigned) [Example 158] | 30 to 500 µM
NCCN1CCN(C(=O)N[C@H](C(=O)N[C@H]2Cc3cccc(C(=O)O)c3OB2O)c2cc(Cl)c(O)c(Cl)c2)C(=O)C1=O (single isomer, unassigned) [Example 165] | 30 to 500 µM
NCCN1CCN(C(=O)N[C@@H](C(=O)N[C@H]2Cc3cccc(C(=O)O)c3OB2O)c2cc(Cl)c(O)c(Cl)c2)C(=O)C1=O (single isomer, unassigned) [Example 166] | < 30 µM

SMILES | EC50
NCCN1CCN(C(=O)N[C@H](C(=O)N[C@H]2Cc3cccc(C(=O)O)c3OB2O)c2cc(F)c(O)c(F)c2F)C(=O)C1=O (single isomer, unassigned) [Example 167] | 30 to 500 µM
NCCN1CCN(C(=O)N[C@H](C(=O)N[C@H]2Cc3cccc(C(=O)O)c3OB2O)c2ccc(O)c(F)c2F)C(=O)C1=O (single isomer, unassigned) [Example 169] | 30 to 500 µM
NCCN1CCN(C(=O)N[C@@H](C(=O)N[C@H]2Cc3cccc(C(=O)O)c3OB2O)c2ccc(O)c(F)c2F)C(=O)C1=O (single isomer, unassigned) [Example 170] | < 30 µM
NS(=O)(=O)c1cccc(C(NC(=O)N2CCN(CCF)C(=O)C2=O)C(=O)N[C@H]2Cc3cccc(C(=O)O)c3OB2O)c1 (stereo partly drawn) [Example 100, (3R)-3-(2-(4-(2-fluoroethyl)-2,3-dioxopiperazine-1-carboxamido)-2-(3-sulfamoylphenyl)acetamido)-2-hydroxy-3,4-dihydro-2H-benzo[e][1,2]oxaborinine-8-carboxylic acid] | 30 to 500 µM
CCN1CCN(C(=O)NC(C(=O)N[C@H]2Cc3cccc(C(=O)O)c3OB2O)c2cc(Cl)c(O)cc2F)C(=O)C1=O (stereo partly drawn) [Example 101, (3R)-3-(2-(5-chloro-2-fluoro-4-hydroxyphenyl)-2-(4-ethyl-2,3-dioxopiperazine-1-carboxamido)acetamido)-2-hydroxy-3,4-dihydro-2H-benzo[e][1,2]oxaborinine-8-carboxylic acid] | < 30 µM
CCN1CCN(C(=O)NC(C(=O)N[C@H]2Cc3cccc(C(=O)O)c3OB2O)c2cc(F)c(O)cc2Cl)C(=O)C1=O (stereo partly drawn) [Example 103, (3R)-3-(2-(2-chloro-5-fluoro-4-hydroxyphenyl)-2-(4-ethyl-2,3-dioxopiperazine-1-carboxamido)acetamido)-2-hydroxy-3,4-dihydro-2H-benzo[e][1,2]oxaborinine-8-carboxylic acid] | < 30 µM
CCN1CCN(C(=O)NC(C(=O)N[C@H]2Cc3cccc(C(=O)O)c3OB2O)c2cc(F)c(O)cc2F)C(=O)C1=O (stereo partly drawn) [Example 104, (3R)-3-(2-(2,5-difluoro-4-hydroxyphenyl)-2-(4-ethyl-2,3-dioxopiperazine-1-carboxamido)acetamido)-2-hydroxy-3,4-dihydro-2H-benzo[e][1,2]oxaborinine-8-carboxylic acid] | < 30 µM
CCN1CCN(C(=O)NC(C(=O)N[C@H]2Cc3cccc(C(=O)O)c3OB2O)c2c(F)cc(O)cc2F)C(=O)C1=O (stereo partly drawn) [Example 105, (3R)-3-(2-(2,6-difluoro-4-hydroxyphenyl)-2-(4-ethyl-2,3-dioxopiperazine-1-carboxamido)acetamido)-2-hydroxy-3,4-dihydro-2H-benzo[e][1,2]oxaborinine-8-carboxylic acid] | < 30 µM
CCN1CCN(C(=O)NC(C(=O)N[C@H]2Cc3cccc(C(=O)O)c3OB2O)c2c(F)c(O)cc(O)c2F)C(=O)C1=O (stereo partly drawn) [Example 106, (3R)-3-(2-(2,6-difluoro-3,5-dihydroxyphenyl)-2-(4-ethyl-2,3-dioxopiperazine-1-carboxamido)acetamido)-2-hydroxy-3,4-dihydro-2H-benzo[e][1,2]oxaborinine-8-carboxylic acid] | 30 to 500 µM
CCN1CCN(C(=O)NC(C(=O)N[C@H]2Cc3cccc(C(=O)O)c3OB2O)c2cccc(CNS(N)(=O)=O)c2)C(=O)C1=O (stereo partly drawn) [Example 107, (3R)-3-(2-(4-ethyl-2,3-dioxopiperazine-1-carboxamido)-2-(3-((sulfamoylamino)methyl)phenyl)acetamido)-2-hydroxy-3,4-dihydro-2H-benzo[e][1,2]oxaborinine-8-carboxylic acid] | 30 to 500 µM
CCN1CCN(C(=O)NC(C(=O)N[C@H]2Cc3cccc(C(=O)O)c3OB2O)c2cccc(CN)c2)C(=O)C1=O (stereo partly drawn) [Example 108, (3R)-3-(2-(3-(aminomethyl)phenyl)-2-(4-ethyl-2,3-dioxopiperazine-1-carboxamido)acetamido)-2-hydroxy-3,4-dihydro-2H-benzo[e][1,2]oxaborinine-8-carboxylic acid] | 30 to 500 µM
NCCN1CCN(C(=O)NC(C(=O)N[C@H]2Cc3cccc(C(=O)O)c3OB2O)c2cc(F)c(O)cc2Cl)C(=O)C1=O (stereo partly drawn) [Example 109, (3R)-3-(2-(4-(2-aminoethyl)-2,3-dioxopiperazine-1-carboxamido)-2-(2-chloro-5-fluoro-4-hydroxyphenyl)acetamido)-2-hydroxy-3,4-dihydro-2H-benzo[e][1,2]oxaborinine-8-carboxylic acid] | < 30 µM
CCN1CCN(C(=O)NC(C(=O)N[C@H]2Cc3cccc(C(=O)O)c3OB2O)c2cncc(O)c2)C(=O)C1=O (stereo partly drawn) [Example 112, (3R)-3-(2-(4-ethyl-2,3-dioxopiperazine-1-carboxamido)-2-(5-hydroxypyridin-3-yl)acetamido)-2-hydroxy-3,4-dihydro-2H-benzo[e][1,2]oxaborinine-8-carboxylic acid] | 30 to 500 µM
NS(=O)(=O)Nc1cccc(C(NC(=O)N2CCN(CCF)C(=O)C2=O)C(=O)N[C@H]2Cc3cccc(C(=O)O)c3OB2O)c1 (stereo partly drawn) [Example 116, (3R)-3-(2-(4-(2-fluoroethyl)-2,3-dioxopiperazine-1-carboxamido)-2-(3-(sulfamoylamino)phenyl)acetamido)-2-hydroxy-3,4-dihydro-2H-benzo[e][1,2]oxaborinine-8-carboxylic acid] | < 30 µM
NCCCN1CCN(C(=O)N[C@@H](C(=O)N[C@H]2Cc3cccc(C(=O)O)c3OB2O)c2cccc(NS(N)(=O)=O)c2)C(=O)C1=O [Example 117, (R)-3-((R)-2-(4-(3-aminopropyl)-2,3-dioxopiperazine-1-carboxamido)-2-(3-(sulfamoylamino)phenyl)acetamido)-2-hydroxy-3,4-dihydro-2H-benzo[e][1,2]oxaborinine-8-carboxylic acid] | 30 to 500 µM
NCCCN1CCN(C(=O)N[C@H](C(=O)N[C@H]2Cc3cccc(C(=O)O)c3OB2O)c2cccc(NS(N)(=O)=O)c2)C(=O)C1=O [Example 118, (R)-3-((S)-2-(4-(3-aminopropyl)-2,3-dioxopiperazine-1-carboxamido)-2-(3-(sulfamoylamino)phenyl)acetamido)-2-hydroxy-3,4-dihydro-2H-benzo[e][1,2]oxaborinine-8-carboxylic acid] | 30 to 500 µM
